Experimental findings from US20080063599A1, “Compounds Which Can Be Used To Diagnose And Monitor Diseases Associated With The Formation Of Amyloid Protein Fibrils” (priority 2002, published 2008) are described below.

The structures appear in SMILES notation.

For the assay, the system named is amyloid plaques in mice brains. Put plainly: MicroPET images of transgenic mice. It is filed as in vivo. As to conditions: Tg2576 mice; dynamic microPET, total acquisition time 55-77 min. On the procedure: All the animal experiments were performed according to the established animal protocol. The transgenic mice (Tg2576) were anaesthetised via intravenous injection with a 40 uL solution of ketamine and xylazine (4:1) before the injection of the tracer radiolabelled with ^18F: 5-[^18F]-fluoro-8-hydroxy-7-iodoquinoline. The mice were placed in supine position and scanned using microPET. A dynamic microPET study was performed using 15 planes and 15 to 16 frames (dynamic sequence: 6×30 s, 4×1 min, 2×5 min, 2×10 min, and 1-2×20 min) for a total acquisition time of 55-77 min. Images were reconstructed using the appropriate algorithms (Filter-back projection algorithm) and a cut-off frequency of 0.5. Images were reconstructed by means of a filtered iteration resulting in an image resolution of 1.8 mm and a volumetric resolution of about 6 mm^3. Transverse planes were reoriented to obtain the coronal and axial sections of the mice brains. Regional uptake is expressed in activity per gram of tissue.

Regarding `Oc1c(I)cc([18F])c2cccnc12` [5-[^18F]-fluoro-8-hydroxy-7-iodoquinoline], the “detection of amyloid plaques in microPET images” value is given as “adequate detection of the amyloid plaques”.
